Measured values published in ChEMBL document CHEMBL3885881, “DrugMatrix”.

Species: Rattus norvegicus
Assay: DrugMatrix - Regimen: Daily Repeat
Format: toxicity, organism-based, Sprague-Dawley
Set-up: regimen Daily Repeat, gender Male, age 6-8 weeks
Conditions: in vivo, po, route oral GAVAGE, […]; for ABSOLUTE BASOPHIL / ABSOLUTE EOSINOPHIL / ABSOLUTE LYMPHOCYTE / ABSOLUTE SEGMENTED NEUTROPHIL / BASOPHIL / EOSINOPHIL / ERYTHROCYTE COUNT / HEMATOCRIT / HEMOGLOBIN / LYMPHOCYTE / MEAN CORPUSCULAR HEMOGLOBIN / MEAN CORPUSCULAR HEMOGLOBIN CONCENTRATION / MEAN CORPUSCULAR VOLUME / MONOCYTE / NUCLEATED RED BLOOD CELLS / PLATELET COUNT: tissue Blood; for ALANINE AMINOTRANSFERASE / ALBUMIN / ALKALINE PHOSPHATASE / ASPARTATE AMINOTRANSFERASE / BLOOD UREA NITROGEN / CARBON DIOXIDE / CHOLESTEROL / CREATINE PHOSPHOKINASE / CREATININE / GLUCOSE / LACTATE DEHYDROGENASE / POTASSIUM / SODIUM / TOTAL BILIRUBIN / TOTAL PROTEIN / URIC ACID: tissue Plasma
[1] = 0 mg/kg, 72 h, dose level Control, time 3 day
[2] = 0 mg/kg, 120 h, dose level Control, time 5 day
[3] = 20 mg/kg, 72 h, dose level Low, time 3 day

## COc1ccccc1OCCNCC(O)COc1cccc2[nH]c3ccccc3c12 (stereo unspecified) [CARVEDILOL]
[1]
  ABSOLUTE BASOPHIL: 0 CELLS/uL
  ABSOLUTE EOSINOPHIL: 0 CELLS/uL
  ABSOLUTE LYMPHOCYTE: 9244.83 CELLS/uL
  ABSOLUTE SEGMENTED NEUTROPHIL: 869.83 CELLS/uL
  BASOPHIL: 0%
  EOSINOPHIL: 0%
  ERYTHROCYTE COUNT: 5.43 x10E6/uL
  HEMATOCRIT: 34.03%
  HEMOGLOBIN: 13.27 G/DL
  LYMPHOCYTE: 90.33%
  MEAN CORPUSCULAR HEMOGLOBIN: 24.48 pg
  MEAN CORPUSCULAR HEMOGLOBIN CONCENTRATION: 39.03 G/DL
  MEAN CORPUSCULAR VOLUME: 62.75 fL
  MONOCYTE: 1%
  NUCLEATED RED BLOOD CELLS: 0.17 /100WBC
  PLATELET COUNT: 989 x10E3/uL
  ALANINE AMINOTRANSFERASE: 77 u/L
  ALBUMIN: 3.97 G/DL
  ALKALINE PHOSPHATASE: 464.83 u/L
  ASPARTATE AMINOTRANSFERASE: 89.83 u/L
  BLOOD UREA NITROGEN: 12.17 mg/dL
  CARBON DIOXIDE: 34.17 mmol/L
  CHOLESTEROL: 75.17 mg/dL
  CREATINE PHOSPHOKINASE: 367.67 u/L
  CREATININE: 0.16 mg/dL
  GLUCOSE: 142.67 mg/dL
  LACTATE DEHYDROGENASE: 139.33 u/L
  POTASSIUM: 6.38 MEQ/L
  SODIUM: 143.2 MEQ/L
  TOTAL BILIRUBIN: 0.2 mg/dL
  TOTAL PROTEIN: 5.77 G/DL
  URIC ACID: 0.7 mg/dL
[2]
  ABSOLUTE BASOPHIL: 0 CELLS/uL
  ABSOLUTE EOSINOPHIL: 0 CELLS/uL
  ABSOLUTE LYMPHOCYTE: 8295.33 CELLS/uL
  ABSOLUTE SEGMENTED NEUTROPHIL: 970 CELLS/uL
  BASOPHIL: 0%
  EOSINOPHIL: 0%
  ERYTHROCYTE COUNT: 5.74 x10E6/uL
  HEMATOCRIT: 36.22%
  HEMOGLOBIN: 13.85 G/DL
  LYMPHOCYTE: 88.67%
  MEAN CORPUSCULAR HEMOGLOBIN: 24.13 pg
  MEAN CORPUSCULAR HEMOGLOBIN CONCENTRATION: 38.25 G/DL
  MEAN CORPUSCULAR VOLUME: 63.08 fL
  MONOCYTE: 1%
  NUCLEATED RED BLOOD CELLS: 0.17 /100WBC
  PLATELET COUNT: 883.83 x10E3/uL
  ALANINE AMINOTRANSFERASE: 64.5 u/L
  ALBUMIN: 4.12 G/DL
  ALKALINE PHOSPHATASE: 425.67 u/L
  ASPARTATE AMINOTRANSFERASE: 88.5 u/L
  BLOOD UREA NITROGEN: 14.17 mg/dL
  CARBON DIOXIDE: 30.5 mmol/L
  CHOLESTEROL: 55.33 mg/dL
  CREATINE PHOSPHOKINASE: 287.17 u/L
  CREATININE: 0.2 mg/dL
  GLUCOSE: 162.83 mg/dL
  LACTATE DEHYDROGENASE: 111.33 u/L
  POTASSIUM: 5.13 MEQ/L
  SODIUM: 143.93 MEQ/L
  TOTAL BILIRUBIN: 0.17 mg/dL
  TOTAL PROTEIN: 5.9 G/DL
  URIC ACID: 0.77 mg/dL
[3]
  ABSOLUTE BASOPHIL: 0 CELLS/uL
  ABSOLUTE EOSINOPHIL: 67.33 CELLS/uL
  ABSOLUTE LYMPHOCYTE: 15458 CELLS/uL
  ABSOLUTE SEGMENTED NEUTROPHIL: 1844 CELLS/uL
  BASOPHIL: 0%
  EOSINOPHIL: 0.33%
  ERYTHROCYTE COUNT: 5.47 x10E6/uL
  HEMATOCRIT: 34.53%
  HEMOGLOBIN: 13.3 G/DL
  LYMPHOCYTE: 89.33%
  MEAN CORPUSCULAR HEMOGLOBIN: 24.47 pg
  MEAN CORPUSCULAR HEMOGLOBIN CONCENTRATION: 38.5 G/DL
  MEAN CORPUSCULAR VOLUME: 63.47 fL
  MONOCYTE: 0.33%
  NUCLEATED RED BLOOD CELLS: 0 /100WBC
  PLATELET COUNT: 907.33 x10E3/uL
  ALANINE AMINOTRANSFERASE: 76.33 u/L
  ALBUMIN: 4.1 G/DL
  ALKALINE PHOSPHATASE: 486 u/L
  ASPARTATE AMINOTRANSFERASE: 96.67 u/L
  BLOOD UREA NITROGEN: 11 mg/dL
  CARBON DIOXIDE: 32.67 mmol/L
  CHOLESTEROL: 75.67 mg/dL
  CREATINE PHOSPHOKINASE: 501.33 u/L
  CREATININE: 0.24 mg/dL
  GLUCOSE: 131 mg/dL
  LACTATE DEHYDROGENASE: 152.67 u/L
  POTASSIUM: 5.98 MEQ/L
  SODIUM: 145.6 MEQ/L
  TOTAL BILIRUBIN: 0.17 mg/dL
  TOTAL PROTEIN: 5.8 G/DL
  URIC ACID: 0.6 mg/dL
